Reference: PubChem BioAssay AID1918994 (Molecular Pharmacology Branch, DTP, NCI, 2023)

Tested on: 292921-168-R-J2-PDC complex spheroid growth
Test: Anticancer human tumor 292921-168-R-J2-PDC patient-derived pancreatic carcinoma cell line growth inhibition [AhR]
Settings: for IC50: curve of first compound; for viability, T/C: stronger effect = lower value
How it was run: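 Spheroids combined tumor cells with HUVEC endothelial cells and human MSCs as stroma. AhR antagonists were paired with standard or investigational drugs, each dosed in half-log steps down from near clinical Cmax, or from 10 microM where Cmax was unknown.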

[1] = second compound 0.1 µM, first compound 0.00316 µM
[2] = second compound 0.1 µM, first compound 0.01 µM
[3] = second compound 0.1 µM, first compound 0.0316 µM
[4] = second compound 0.1 µM, first compound 0.1 µM
[5] = second compound 0.316 µM, first compound 0.00316 µM
[6] = second compound 0.316 µM, first compound 0.01 µM
[7] = second compound 0.316 µM, first compound 0.0316 µM
[8] = second compound 0.316 µM, first compound 0.1 µM
[9] = second compound 1 µM, first compound 0.00316 µM
[10] = second compound 1 µM, first compound 0.01 µM
[11] = second compound 1 µM, first compound 0.0316 µM
[12] = second compound 1 µM, first compound 0.1 µM
[13] = second compound 3.16 µM, first compound 0.00316 µM
[14] = second compound 3.16 µM, first compound 0.01 µM
[15] = second compound 3.16 µM, first compound 0.0316 µM
[16] = second compound 3.16 µM, first compound 0.1 µM
[17] = second compound 10 µM, first compound 0.00316 µM
[18] = second compound 10 µM, first compound 0.01 µM
[19] = second compound 10 µM, first compound 0.0316 µM
[20] = second compound 10 µM, first compound 0.1 µM
[21] = second compound 0.1 µM, first compound 0.316 µM
[22] = second compound 0.1 µM, first compound 1 µM
[23] = second compound 0.1 µM, first compound 3.16 µM
[24] = second compound 0.1 µM, first compound 10 µM
[25] = second compound 0.316 µM, first compound 0.316 µM
[26] = second compound 0.316 µM, first compound 1 µM
[27] = second compound 0.316 µM, first compound 3.16 µM
[28] = second compound 0.316 µM, first compound 10 µM
[29] = second compound 1 µM, first compound 0.316 µM
[30] = second compound 1 µM, first compound 1 µM
[31] = second compound 1 µM, first compound 3.16 µM
[32] = second compound 1 µM, first compound 10 µM
[33] = second compound 3.16 µM, first compound 0.316 µM
[34] = second compound 3.16 µM, first compound 1 µM
[35] = second compound 3.16 µM, first compound 3.16 µM
[36] = second compound 3.16 µM, first compound 10 µM
[37] = second compound 10 µM, first compound 0.316 µM
[38] = second compound 10 µM, first compound 1 µM
[39] = second compound 10 µM, first compound 3.16 µM
[40] = second compound 10 µM, first compound 10 µM
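Note: spheroids exposed to compounds for seven days after three days of growth.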

Compound	IC50 (second compound 0.1 µM) [nM]	IC50 (second compound 0.316 µM) [nM]	IC50 (second compound 1 µM) [nM]	IC50 (second compound 3.16 µM) [nM]	IC50 (second compound 10 µM) [nM]	viability, T/C [3] [%]	viability, T/C [4] [%]	viability, T/C [7] [%]	viability, T/C [8] [%]	viability, T/C [11] [%]	viability, T/C [12] [%]	viability, T/C [15] [%]	viability, T/C [16] [%]	viability, T/C [19] [%]	viability, T/C [20] [%]	viability, T/C [21] [%]	viability, T/C [22] [%]	viability, T/C [25] [%]	viability, T/C [26] [%]	viability, T/C [29] [%]	further results
CC[C@@]1(O)C(=O)OCc2c1cc1n(c2=O)Cc2cc3c(CN(C)C)c(O)ccc3nc2-1 + Cc1cncc(-c2nc(NCCc3c[nH]c4ccccc34)c3ncn(C(C)C)c3n2)c1	39.2	28.1	30.2	21	1.19	58.9	23.3	49.6	23.7	54	24.1	44.2	22.2	33.4	24.2						viability, T/C (second compound 0.1 µM, first compound 0.000316 µM): 90.2%; viability, T/C (second compound 0.1 µM, first compound 0.001 µM): 90.4%; viability, T/C [1]: 89.5%; viability, T/C [2]: 68.1%; viability, T/C (second compound 0.316 µM, first compound 0.000316 µM): 89.1%; viability, T/C (second compound 0.316 µM, first compound 0.001 µM): 92.8%; viability, T/C [5]: 87.8%; viability, T/C [6]: 67.4%; viability, T/C (second compound 1 µM, first compound 0.000316 µM): 91%; viability, T/C (second compound 1 µM, first compound 0.001 µM): 90.6%; viability, T/C [9]: 80.9%; viability, T/C [10]: 60.3%; viability, T/C (second compound 3.16 µM, first compound 0.000316 µM): 69.9%; viability, T/C (second compound 3.16 µM, first compound 0.001 µM): 67.7%; viability, T/C [13]: 73.2%; viability, T/C [14]: 59.4%; viability, T/C (second compound 10 µM, first compound 0.000316 µM): 52.1%; viability, T/C (second compound 10 µM, first compound 0.001 µM): 49.1%; viability, T/C [17]: 50.1%; viability, T/C [18]: 37.5%
COc1cc(C2c3cc4c(cc3C(OC3OC5COC(C)OC5C(O)C3O)C3COC(=O)C23)OCO4)cc(OC)c1O (stereo not given) + Cc1cncc(-c2nc(NCCc3c[nH]c4ccccc34)c3ncn(C(C)C)c3n2)c1	565	581	289	261	< 31.6	92.6	92.2	78.7	73.6	77.1	67	62.3	62.5	46.5	43.6	64	34.1	64.8	35.9	48.9	viability, T/C [23]: 24.2%; viability, T/C [24]: 13.3%; viability, T/C [27]: 24.7%; viability, T/C [28]: 12.9%; viability, T/C [30]: 28.7%; viability, T/C [31]: 23.4%; viability, T/C [32]: 13.1%; viability, T/C [33]: 47.5%; viability, T/C [34]: 25.9%; viability, T/C [35]: 21.2%; viability, T/C [36]: 13.5%; viability, T/C [37]: 37.2%; viability, T/C [38]: 26.2%; viability, T/C [39]: 22.3%; viability, T/C [40]: 20.2%
COc1cccc2c1C(=O)c1c(O)c3c(c(O)c1C2=O)CC(O)(C(=O)CO)CC3OC1CC(N)C(O)C(C)O1 (stereo not given) + Cc1cncc(-c2nc(NCCc3c[nH]c4ccccc34)c3ncn(C(C)C)c3n2)c1	< 31.6	< 31.6	< 31.6	< 31.6	< 31.6	30.9	25.2	30.6	23.2	29.3	22.7	26.8	22.1	25.3	21.3	9.88	0.21	9.81	0.2	9.15	viability, T/C [23]: 0.78%; viability, T/C [24]: 2.79%; viability, T/C [27]: 0.66%; viability, T/C [28]: 2.98%; viability, T/C [30]: 0.34%; viability, T/C [31]: 1.61%; viability, T/C [32]: 3.01%; viability, T/C [33]: 9.58%; viability, T/C [34]: 0.2%; viability, T/C [35]: 1.48%; viability, T/C [36]: 3.82%; viability, T/C [37]: 10.8%; viability, T/C [38]: 0.46%; viability, T/C [39]: 2.04%; viability, T/C [40]: 4.23%

Now from value to compound, other results behind:

IC50 (second compound 0.1 µM) [nM]	IC50 (second compound 0.316 µM) [nM]	IC50 (second compound 1 µM) [nM]	IC50 (second compound 3.16 µM) [nM]	IC50 (second compound 10 µM) [nM]	Compound	viability, T/C [3] [%]	viability, T/C [4] [%]	viability, T/C [7] [%]	viability, T/C [8] [%]	viability, T/C [11] [%]	viability, T/C [12] [%]	viability, T/C [15] [%]	viability, T/C [16] [%]	viability, T/C [19] [%]	viability, T/C [20] [%]	viability, T/C [21] [%]	viability, T/C [22] [%]	viability, T/C [25] [%]	viability, T/C [26] [%]	viability, T/C [29] [%]	further results
< 31.6	< 31.6	< 31.6	< 31.6	< 31.6	Nc1ccn(C2OC(CO)C(O)C2(F)F)c(=O)n1 (stereo not given) + Cc1cncc(-c2nc(NCCc3c[nH]c4ccccc34)c3ncn(C(C)C)c3n2)c1	8.94	10.1	10.2	9.23	12	9.47	13.8	12.3	29.8	21.1	9.38	9.84	9.06	8.59	9.26	viability, T/C [23]: 9.57%; viability, T/C [24]: 7.01%; viability, T/C [27]: 9.76%; viability, T/C [28]: 6.34%; viability, T/C [30]: 9.49%; viability, T/C [31]: 8.78%; viability, T/C [32]: 7.47%; viability, T/C [33]: 10.2%; viability, T/C [34]: 11.6%; viability, T/C [35]: 11.6%; viability, T/C [36]: 8.76%; viability, T/C [37]: 19.3%; viability, T/C [38]: 15.2%; viability, T/C [39]: 15.8%; viability, T/C [40]: 13.4%
> 1000	> 1000	> 1000	> 1000	9.68	Nc1ncn(C2CC(O)C(CO)O2)c(=O)n1 (stereo not given) + Cc1cncc(-c2nc(NCCc3c[nH]c4ccccc34)c3ncn(C(C)C)c3n2)c1	84	89.6	88.1	79.3	80.4	77.8	76.5	67.6	50	47.1	80.6	65.6	78.6	70.7	82	viability, T/C [1]: 99.6%; viability, T/C [2]: 100%; viability, T/C [5]: 84.1%; viability, T/C [6]: 86.2%; viability, T/C [9]: 80.5%; viability, T/C [10]: 86.9%; viability, T/C [30]: 73.7%; viability, T/C [13]: 70.7%; viability, T/C [14]: 71.9%; viability, T/C [33]: 64.1%; viability, T/C [34]: 62.3%; viability, T/C [17]: 51.9%; viability, T/C [18]: 49%; viability, T/C [37]: 43.2%; viability, T/C [38]: 45.5%
